Data from US20220218664A1, “DRUG AND METHOD FOR TREATING OR PREVENTING COMPLICATIONS FROM DIABETES, USING SAID DRUG” (TMS Co., Ltd., priority 2019, published 2022).

Assays:
[1] = Body weight (BW) in streptozotocin-induced diabetic mice; format: in vivo, C57BL/6J male mice
Experimental: (§1) 9-week-old C57BL/6J male mice were purchased and familiarized with an animal facility for 1 week. 200 mg/kg of streptozotocin (streptozotocin; STZ) was administered […] into the peritoneal cavity of 10-week-old mice to prepare streptozotocin-induced diabetic mice (hereinafter also referred to as “STZ administration week 0”). One week after the administration of streptozotocin, blood was collected from the tail vein of the mice, and the blood glucose level (BS) was measured using an automatic blood glucose measuring device (product name: Medisafe (trademark) Mini GR-102, made by Terumo (Co)). Mice having a blood glucose level of 400 mg/dL or more were determined to be diabetic mice.
(§2) The SMTP-44D groups, the edaravone group, and the pregabalin group were administered SMTP-44D (0.3 mg/kg, 3 mg/kg, or 30 mg/kg doses, respectively), edaravone (10 mg/kg dose), or pregabalin (10 mg/kg dose) into the peritoneal cavity once a day for 3 consecutive weeks from the day following the first week to the fourth week after STZ administration.
(§3) For the above-mentioned STZ group, SMTP-44D groups, edaravone group, pregabalin group, and control group mice, the following measurements were conducted every week from the 0th week, which began on the day when streptozotocin (STZ) was administered, to the 4th week (that is, a total of five times). As algesia tests, the following von Frey test and hot plate test were conducted, and hind plantar blood flow, body weight (BW), and blood glucose level (BS) were measured using the above-mentioned automatic blood glucose measure device. Note, for example, the 0th week represents the 0th day. That is, the measurements were conducted on the 0th, 7th, 14th, 21st, and 28th days.

[2] = tested on: streptozotocin-induced diabetic mice; assay: Blood glucose level (BS) in streptozotocin-induced diabetic mice; format: in vivo, C57BL/6J male mice
Experimental: as §1, §2, §3

[3] = tested on: streptozotocin-induced diabetic mice; assay: Hot plate test: evaluating thermal stimulus; format: in vivo, C57BL/6J male mice
Experimental: as §1, §2
The above-mentioned STZ group, SMTP-44D groups, edaravone group, pregabalin group, and control group mice were put in grid-like boxes, respectively, and were left for 30 minutes. After having been left, an acrylic disc (diameter: 20 cm; height (that is, thickness of the acrylic disc): […]) was placed on an EC hot plate (model number: EC1200) maintained at 49 to 50° C., and the mice were put on the acrylic disc. The measurements were started after the mice landed on the EC hot plate. The times from the mice landing to their action to jump or lick their hind legs were evaluated as thermal thresholds (seconds: s). Note, to avoid burns on their plantae, the measurements were ceased 30 seconds after beginning. The measurements were conducted three times at 30-minute intervals. A mean value of three thermal thresholds (seconds: s) was calculated for 1 mouse, and then a mean value of the 12 mice for the respective groups was found.

[4] = tested on: TNF-α; assay: Inflammatory cytokine TNF-α in sciatic nerve (ELISA); format: in vivo, C57BL/6J male mice; conditions: 4th week
Experimental: as §1, §2
(§4) The sciatic nerves of the above-mentioned STZ group, SMTP-44D group (30 mg/kg), edaravone group, pregabalin group, and control group mice on the 4th week were homogenized using the RIPA buffer containing a protease inhibitor cocktail. Moreover, centrifugation was conducted at 4° C. for 15 minutes at 10,000 g, and the supernatant was collected and used for measuring TNF-α concentration (pg/mL), IL-1β concentration (pg/mL), IL-6 concentration (pg/mL), and total protein concentration (μg/mL), respectively. An ELISA assay kit was used for the TNF-α, IL-1β, and IL-6 concentrations. The total protein concentration was measured by using a Pierce (trademark) BCA Protein Assay Kit. The inflammatory cytokine level (pg/mg protein) in the total protein was calculated from the TNF-α concentration (pg/mL), IL-1β concentration (pg/mL), and IL-6 concentration (pg/mL), and total protein concentration (μg/mL).

[5] = tested on: IL-6; assay: Inflammatory cytokine IL-6 in sciatic nerve (ELISA); format: in vivo, C57BL/6J male mice; conditions: 4th week
Experimental: as §1, §2, §4

[6] = Body weight in diabetic nephropathy model mice; format: in vivo, Male db/db mice; conditions: 30 mg/kg i.p. once every two days for 10 weeks; 16 weeks old
[7] = tested on: diabetic nephropathy model mice; assay: Blood glucose level in diabetic nephropathy model mice; format: in vivo, Male db/db mice; conditions: 30 mg/kg i.p. once every two days for 10 weeks; 16 weeks old
[8] = tested on: diabetic nephropathy model mice; assay: Urine volume (24 h, metabolic cage); format: in vivo, Male db/db mice; conditions: 30 mg/kg i.p. once every two days for 10 weeks; 16 weeks old; 24 h urine
[9] = tested on: diabetic nephropathy model mice; assay: Urinary albumin; conditions: 30 mg/kg i.p. once every two days for 10 weeks; 16 weeks old
[10] = tested on: diabetic nephropathy model mice; assay: Serum creatinine; conditions: 30 mg/kg i.p. once every two days for 10 weeks; 16 weeks old
[11] = 30 mg/kg i.p. once a day, 0th week (before dosing)
[12] = 30 mg/kg i.p. once a day, 1st week (before dosing)
[13] = 30 mg/kg i.p. once a day, 3rd week
[14] = 30 mg/kg i.p. once a day, 4th week
[15] = 30 mg/kg i.p. once a day, 2nd week
[16] = 10 mg/kg i.p. once a day, 0th week (before dosing)
[17] = 10 mg/kg i.p. once a day, 0th week (before dosing), listed as edaravone
[18] = 10 mg/kg i.p. once a day, 1st week (before dosing)
[19] = 10 mg/kg i.p. once a day, 1st week (before dosing), listed as edaravone
[20] = 10 mg/kg i.p. once a day, 2nd week
[21] = 10 mg/kg i.p. once a day, 2nd week, listed as edaravone
[22] = 10 mg/kg i.p. once a day, 3rd week
[23] = 10 mg/kg i.p. once a day, 3rd week, listed as edaravone
[24] = 10 mg/kg i.p. once a day, 4th week
[25] = 10 mg/kg i.p. once a day, 4th week, listed as edaravone
[26] = 10 mg/kg i.p. once a day, listed as edaravone

For `CC(C)=CCCC(C)=CCCC1(C)Oc2c(c(O)cc3c2CN(C(C(=O)O)c2ccc(O)cc2)C3=O)CC1O` (stereo not drawn) [SMTP-44D], the “Body weight decrease between the 0th week and 4th week” value ([1]; 30 mg/kg i.p. once a day) was 1.5 g, the “BW (body weight)” value [1, 11] was 23.0 ± 0.4 g and the “BW (body weight)” value [1, 12] was 21.7 ± 0.5 g. For the same molecule, the “BW (body weight)” value [1, 13] was 21.3 ± 0.6 g, the “BW (body weight)” value [1, 14] was 21.5 ± 0.5 g and the “BS (blood glucose level)” value [2, 11] was 203.5 ± 5.5 mg/dL. For the same molecule, the “BS (blood glucose level)” value [2, 12] was 535.5 ± 28.7 mg/dL, the “BS (blood glucose level)” value [2, 15] was 597.3 ± 44.8 mg/dL and the “BS (blood glucose level)” value [2, 13] was 638.7 ± 34.2 mg/dL. The “BS (blood glucose level)” value [2, 14] was 580.3 ± 42.9 mg/dL, the “Hot plate test thermal threshold” value ([3]; 0.3 mg/kg i.p. once a day, 0th week (before dosing)) was 22.8 ± 1.2 s and the “Hot plate test thermal threshold” value ([3]; 0.3 mg/kg i.p. once a day, 1st week (before dosing)) was 14.3 ± 1.0 s. The “Hot plate test thermal threshold” value ([3]; 0.3 mg/kg i.p. once a day, 2nd week) was 14.0 ± 1.4 s, the “Hot plate test thermal threshold” value ([3]; 0.3 mg/kg i.p. once a day, 3rd week) was 13.3 ± 1.3 s and the “Hot plate test thermal threshold” value ([3]; 0.3 mg/kg i.p. once a day, 4th week) was 13.1 ± 0.6 s. For the same molecule, the “Hot plate test thermal threshold” value ([3]; 3 mg/kg i.p. once a day, 0th week (before dosing)) was 21.0 ± 1.3 s, the “Hot plate test thermal threshold” value ([3]; 3 mg/kg i.p. once a day, 1st week (before dosing)) was 14.6 ± 1.4 s and the “Hot plate test thermal threshold” value ([3]; 3 mg/kg i.p. once a day, 2nd week) was 15.4 ± 0.8 s. For the same molecule, the “Hot plate test thermal threshold” value ([3]; 3 mg/kg i.p. once a day, 3rd week) was 15.1 ± 1.1 s, the “Hot plate test thermal threshold” value ([3]; 3 mg/kg i.p. once a day, 4th week) was 15.1 ± 1.3 s and the “Hot plate test thermal threshold” value [3, 11] was 21.3 ± 0.4 s. For the same molecule, the “Hot plate test thermal threshold” value [3, 12] was 15.0 ± 0.7 s, the “Hot plate test thermal threshold” value [3, 15] was 18.0 ± 1.2 s and the “Hot plate test thermal threshold” value [3, 13] was 18.4 ± 1.3 s. For the same molecule, the “Hot plate test thermal threshold” value [3, 14] was 18.2 ± 1.1 s, the TNF-α ([4]; 30 mg/kg i.p. once a day) was 15.22±2.51 pg/mg protein and the IL-6 ([5]; 30 mg/kg i.p. once a day) was 143.41±8.08 pg/mg protein. The “Body weight compared to the DN group” value [6] was “No significant changes”, the “Blood glucose levels compared to the DN group” value [7] was “No significant changes” and the Urine volume [8] was 1268.3 ± 137.4 µL. It also gave a Urinary albumin [9] of 0.3 ± 0.1 mg/h/kg and a Serum creatinine [10] of 0.4 ± 0.1 mg/dL.

With `CC1=NN(c2ccccc2)C(=O)C1` [Edaravone, edaravone] the “Body weight decrease between the 0th week and 4th week” value ([1]; 10 mg/kg i.p. once a day) was 2.4 g, the “BW (body weight)” value [1, 16] was 23.4 ± 0.3 g and the “BW (body weight)” value [1, 17] was 23.4 ± 0.3 g. The “BW (body weight)” value [1, 18] was 21.9 ± 0.4 g, the “BW (body weight)” value [1, 19] was 21.9 ± 0.4 g and the “BW (body weight)” value [1, 20] was 21.6 ± 0.4 g. For the same molecule, the “BW (body weight)” value [1, 21] was 21.6 ± 0.4 g, the “BW (body weight)” value [1, 22] was 21.3 ± 0.5 g and the “BW (body weight)” value [1, 23] was 21.3 ± 0.5 g. For the same molecule, the “BW (body weight)” value [1, 24] was 21.0 ± 0.5 g, the “BW (body weight)” value [1, 25] was 21.0 ± 0.5 g and the “BS (blood glucose level)” value [2, 17] was 221.0 ± 7.3 mg/dL. The “BS (blood glucose level)” value [2, 18] was 566.0 ± 32.6 mg/dL, the “BS (blood glucose level)” value [2, 19] was 566.0 ± 32.6 mg/dL and the “BS (blood glucose level)” value [2, 20] was 567.5 ± 28.0 mg/dL. For the same molecule, the “BS (blood glucose level)” value [2, 21] was 567.5 ± 28.0 mg/dL, the “BS (blood glucose level)” value [2, 22] was 617.7 ± 373.3 mg/dL and the “BS (blood glucose level)” value [2, 23] was 617.7 ± 37.3 mg/dL. For the same molecule, the “BS (blood glucose level)” value [2, 24] was 565.3 ± 35.1 mg/dL, the “BS (blood glucose level)” value [2, 25] was 565.3 ± 35.1 mg/dL and the “Hot plate test thermal threshold” value [3, 16] was 20.8 ± 0.5 s. The “Hot plate test thermal threshold” value [3, 17] was 20.8 ± 0.5 s, the “Hot plate test thermal threshold” value [3, 18] was 15.7 ± 0.8 s and the “Hot plate test thermal threshold” value [3, 19] was 15.7 ± 0.8 s. The “Hot plate test thermal threshold” value [3, 20] was 15.5 ± 1.2 s, the “Hot plate test thermal threshold” value [3, 21] was 15.5 ± 1.2 s and the “Hot plate test thermal threshold” value [3, 22] was 15.4 ± 0.9 s. For the same molecule, the “Hot plate test thermal threshold” value [3, 23] was 15.4 ± 0.9 s, the “Hot plate test thermal threshold” value [3, 24] was 16.0 ± 0.8 s and the “Hot plate test thermal threshold” value [3, 25] was 16.0 ± 0.8 s. It also gave a TNF-α ([4]; 10 mg/kg i.p. once a day) of 12.45 ± 2.06 pg/mg protein, a TNF-α [4, 26] of 12.45±2.06 pg/mg protein and an IL-6 ([5]; 10 mg/kg i.p. once a day) of 165.83 ± 10.21 pg/mg protein. The IL-6 [5, 26] was 165.83±10.21 pg/mg protein.
